Results from patent publication US20240358693A1, “METHODS OF TREATING PAIN” (Aisa Pharma, Inc., priority 2023, published 2024).

Test system: participants with SSc-RP
Assay: Average severity of weekly RP attacks (VAS 0-10 cm scale)
Format: in vivo, human
Text: The absolute change in average severity of weekly RP attacks (VAS 0-10 cm scale) from baseline to the end of each Dosing Period was and will be a secondary outcome variable. The sponsor-developed participant-informed diary will be used to record data. Average severity of weekly RP attacks is defined as the total severity scores of RP attacks divided by total number of RP attacks within the last 7 days of each dosing period. Total severity scores of RP attacks during the last 7 days of screening period divided by the total number of RP attacks will be used as baseline for the analysis of all periods. The variable will be calculated similar to frequency data as before.

[1] = Cilnidipine 20 mg, ITT Population - Part A
[2] = Cilnidipine 20 mg, first Baseline RCS subgroup block (not named), ITT Part A
[3] = Cilnidipine 20 mg, first Baseline RCS subgroup block (not named), ITT Part A, score 0-10
[4] = Excluding Outliers, Cilnidipine 10 mg, first Baseline RCS subgroup block (not named), ITT Part A
[5] = Excluding Outliers, Cilnidipine 10 mg, first Baseline RCS subgroup block (not named), ITT Part A, score 0-10
[6] = Excluding Outliers, Cilnidipine 20 mg, first Baseline RCS subgroup block (not named), ITT Part A
[7] = Excluding Outliers, Cilnidipine 20 mg, first Baseline RCS subgroup block (not named), ITT Part A, score 0-10
[8] = Excluding Outliers, Pooled Cilnidipine 10 mg and Cilnidipine 10 mg + Tadalafil 5 mg, first Baseline RCS subgroup block (not named), ITT Part A
[9] = Excluding Outliers, Pooled Cilnidipine 10 mg and Cilnidipine 10 mg + Tadalafil 5 mg, first Baseline RCS subgroup block (not named), ITT Part A, score 0-10
[10] = Excluding Outliers, Pooled Cilnidipine 10 mg and Cilnidipine 10 mg + Tadalafil 5 mg, second Baseline RCS subgroup block (not named), ITT Part A
[11] = Excluding Outliers, Pooled Cilnidipine 10 mg and Cilnidipine 10 mg + Tadalafil 5 mg, second Baseline RCS subgroup block (not named), ITT Part A, score 0-10
[12] = Excluding Outliers, Pooled Cilnidipine 20 mg and Cilnidipine 20 mg + Tadalafil 5 mg, first Baseline RCS subgroup block (not named), ITT Part A
[13] = Excluding Outliers, Pooled Cilnidipine 20 mg and Cilnidipine 20 mg + Tadalafil 5 mg, first Baseline RCS subgroup block (not named), ITT Part A, score 0-10
[14] = Excluding Outliers, Pooled Cilnidipine 20 mg and Cilnidipine 20 mg + Tadalafil 5 mg, second Baseline RCS subgroup block (not named), ITT Part A
[15] = Excluding Outliers, Pooled Cilnidipine 20 mg and Cilnidipine 20 mg + Tadalafil 5 mg, second Baseline RCS subgroup block (not named), ITT Part A, score 0-10
[16] = Excluding Outliers, Pooled Cilnidipine, first Baseline RCS subgroup block (not named), ITT Part A
[17] = Excluding Outliers, Pooled Cilnidipine, first Baseline RCS subgroup block (not named), ITT Part A, score 0-10
[18] = Pooled (over cilnidipine doses), Excluding Outliers, ITT Population - Part A
[19] = Pooled (over cilnidipine doses), Excluding Outliers, by Baseline RCS, first subgroup, ITT Population - Part A
[20] = Pooled (over cilnidipine doses), ITT Population - Part A

COCCOC(=O)C1=C(C)NC(C)=C(C(=O)OC/C=C/c2ccccc2)C1c1cccc([N+](=O)[O-])c1 (stereo not shown) [Cilnidipine, cilnidipine]
Average Severity of Weekly RP Attacks (All Attacks), Change from Baseline, Median [1]: −1.07 | Average Severity of Weekly RP Attacks (All Attacks), Mean [1]: 2.30 | Average Severity of Weekly RP Attacks (All Attacks), Median [1]: 2.30 | Average Severity of Weekly RP Attacks (All Attacks), Percent Change from Baseline, Mean [1]: −27.26% | Average Severity of Weekly RP Attacks (All Attacks), Percent Change from Baseline, Median [1]: −27.26% | Average Severity of Weekly RP Attacks (All Attacks), Percent Change from Baseline, Mean [2]: −27.26% | Average Severity of Weekly RP Attacks (All Attacks), Percent Change from Baseline, Median [2]: −27.26% | Average Severity of Weekly RP Attacks (All Attacks), Change from Baseline, Mean [3]: −1.07 | Average Severity of Weekly RP Attacks (All Attacks), Change from Baseline, Median [3]: −1.07 | Average Severity of Weekly RP Attacks (All Attacks), Mean [3]: 2.30 | Average Severity of Weekly RP Attacks (All Attacks), Median [3]: 2.30 | Mean % reduction in severity (Cilnidipine (20 mg) (n = 3)): 35.5% | Mean severity at baseline (Cilnidipine (20 mg) (n = 3)): 3.7 | Severity (Cilnidipine (20 mg) (n = 3)): −36% | Average Severity of Weekly RP Attacks (All Attacks), Percent Change from Baseline, Mean [4]: 0.55% | Average Severity of Weekly RP Attacks (All Attacks), Percent Change from Baseline, Median [4]: 0.55% | Average Severity of Weekly RP Attacks (All Attacks), Change from Baseline, Mean [5]: 0.02 | Average Severity of Weekly RP Attacks (All Attacks), Change from Baseline, Median [5]: 0.02 | Average Severity of Weekly RP Attacks (All Attacks), Mean [5]: 3.05 | Average Severity of Weekly RP Attacks (All Attacks), Median [5]: 3.05 | Average Severity of Weekly RP Attacks (All Attacks), Percent Change from Baseline, Mean [6]: −27.26% | Average Severity of Weekly RP Attacks (All Attacks), Percent Change from Baseline, Median [6]: −27.26% | Average Severity of Weekly RP Attacks (All Attacks), Change from Baseline, Mean [7]: −1.07 | Average Severity of Weekly RP Attacks (All Attacks), Change from Baseline, Median [7]: −1.07 | Average Severity of Weekly RP Attacks (All Attacks), Mean [7]: 2.30 | Average Severity of Weekly RP Attacks (All Attacks), Median [7]: 2.30 | Average Severity of Weekly RP Attacks (All Attacks), Percent Change from Baseline, Mean [8]: −23.94% | Average Severity of Weekly RP Attacks (All Attacks), Percent Change from Baseline, Median [8]: −23.94% | Average Severity of Weekly RP Attacks (All Attacks), Change from Baseline, Mean [9]: −1.35 | Average Severity of Weekly RP Attacks (All Attacks), Change from Baseline, Median [9]: −1.35 | Average Severity of Weekly RP Attacks (All Attacks), Mean [9]: 2.97 | Average Severity of Weekly RP Attacks (All Attacks), Median [9]: 2.97 | Average Severity of Weekly RP Attacks (All Attacks), Percent Change from Baseline, Mean [10]: −21.20% | Average Severity of Weekly RP Attacks (All Attacks), Percent Change from Baseline, Median [10]: −21.20% | Average Severity of Weekly RP Attacks (All Attacks), Change from Baseline, Mean [11]: −1.32 | Average Severity of Weekly RP Attacks (All Attacks), Change from Baseline, Median [11]: −1.32 | Average Severity of Weekly RP Attacks (All Attacks), Mean [11]: 4.90 | Average Severity of Weekly RP Attacks (All Attacks), Median [11]: 4.90 | Average Severity of Weekly RP Attacks (All Attacks), Percent Change from Baseline, Mean [12]: −21.36% | Average Severity of Weekly RP Attacks (All Attacks), Percent Change from Baseline, Median [12]: −9.57% | Average Severity of Weekly RP Attacks (All Attacks), Change from Baseline, Mean [13]: −0.84 | Average Severity of Weekly RP Attacks (All Attacks), Change from Baseline, Median [13]: −0.39 | Average Severity of Weekly RP Attacks (All Attacks), Mean [13]: 2.78 | Average Severity of Weekly RP Attacks (All Attacks), Median [13]: 2.40 | Average Severity of Weekly RP Attacks (All Attacks), Percent Change from Baseline, Mean [14]: −23.23% | Average Severity of Weekly RP Attacks (All Attacks), Percent Change from Baseline, Median [14]: −23.23% | Average Severity of Weekly RP Attacks (All Attacks), Change from Baseline, Mean [15]: −1.53 | Average Severity of Weekly RP Attacks (All Attacks), Change from Baseline, Median [15]: −1.53 | Average Severity of Weekly RP Attacks (All Attacks), Mean [15]: 5.06 | Average Severity of Weekly RP Attacks (All Attacks), Median [15]: 5.06 | Average Severity of Weekly RP Attacks (All Attacks), Percent Change from Baseline, Mean [16]: −17.99% | Average Severity of Weekly RP Attacks (All Attacks), Percent Change from Baseline, Median [16]: −7.69% | Average Severity of Weekly RP Attacks (All Attacks), Change from Baseline, Mean [17]: −0.71 | Average Severity of Weekly RP Attacks (All Attacks), Change from Baseline, Median [17]: −0.20 | Average Severity of Weekly RP Attacks (All Attacks), Mean [17]: 2.55 | Average Severity of Weekly RP Attacks (All Attacks), Median [17]: 2.40 | Average Severity of Weekly RP Attacks (All Attacks), Change from Baseline, Mean [18]: −0.71 | Average Severity of Weekly RP Attacks (All Attacks), Change from Baseline, Median [18]: −0.20 | Average Severity of Weekly RP Attacks (All Attacks), Mean [18]: 2.55 | Average Severity of Weekly RP Attacks (All Attacks), Median [18]: 2.40 | Average Severity of Weekly RP Attacks (All Attacks), Percent Change from Baseline, Mean [18]: −17.99% | Average Severity of Weekly RP Attacks (All Attacks), Percent Change from Baseline, Median [18]: −7.69% | Average Severity of Weekly Symptomatic RP Attacks (Mean) [19]: 2.79 | Average Severity of Weekly Symptomatic RP Attacks (Median) [19]: 2.40 | Average Severity of Weekly Symptomatic RP Attacks, Change from Baseline, Mean [19]: −0.87 | Average Severity of Weekly Symptomatic RP Attacks, Change from Baseline, Median [19]: −0.33 | Average Severity of Weekly Symptomatic RP Attacks, Percent Change from Baseline, Mean [19]: −19.22% | Average Severity of Weekly Symptomatic RP Attacks, Percent Change from Baseline, Median [19]: −12.02% | Average Severity of Weekly RP Attacks (All Attacks), Change from Baseline, Mean [20]: −0.71 | Average Severity of Weekly RP Attacks (All Attacks), Change from Baseline, Median [20]: −0.20 | Average Severity of Weekly RP Attacks (All Attacks), Mean [20]: 2.55 | Average Severity of Weekly RP Attacks (All Attacks), Median [20]: 2.40 | Average Severity of Weekly RP Attacks (All Attacks), Percent Change from Baseline, Mean [20]: −17.99%
